The values that follow come from patent publication US11679097B2, “Combination product containing limonoid compound and biguanide compound” (ZHEJIANG YANGSHENGTANG INSTITUTE OF NATURAL MEDICATION CO., …, priority 2017, dated 2023).

One experiment concerns db/db mice. The experiment can be described thus: Blood glucose and insulin in mouse model of type II diabetes (Example 4). Type of experiment: in vivo. The settings on record: single administration 0.2 g/kg per day by gavage, two weeks. From the text: Effects of a Limonoid Compound, Metformin or a Combination Thereof on Blood Glucose and Insulin in a Mouse Model of Type II Diabetes
In the present embodiment, the limonoid compound selected nomilin, deacetylnomilin, nomilin acid, deactylnomilin 17-β-D-glucopyranoside, and a nomilin single administration group, deacetylnomilin single administration group, nomilin acid single administered group, deactylnomilin 17-β-D-glucopyranoside single administration group, and combination thereof with metformin administration groups were set, respectively.
Conditions for experimental feeding: as type II diabetes model mice, 6-week-old SPF-grade db/db mice were purchased from the Nanjing Model Biology Institute, and subjected to experimental feeding after 7 days of preliminary feeding. It should be noted that the conditions for raising the mice were as follows: the temperature was 23±1° C., the humidity was 55±10%, the lights were turned on between 7 am and 7 pm (the lights were turned off at other time), and the mice were allowed to access to water and feed freely. The experimental feed was mouse growth-stable feed (GB M2118), and the daily feeding and management of the animals were under the responsibility of the animal security department, which provided the animals with sufficient padding and fresh drinking water daily.
Experimental grouping: male db/db mice (20±2 g) were selected, 18 male mice in each group were tested, and drinking bottles were sterilized weekly. The experimental groups included the normal control group (db/m, n=18), the model group (db/db, n=18), the nomilin group (db/db, n=18), the deacetylnomilin group (db/db, n=18), the nomilin acid group (db/db, n=18), the deactylnomilin 17-β-D-glucopyranoside group (db/db, n=18), the metformin group (db/db, n=18), the nomilin/metformin combination group (db/db, n=18), the deacetylnomilin/metformin combination group (db/db, n=18), the nomilin acid/metformin combination group (db/db, n=18), the deactylnomilin 17-β-D-glucopyranoside/combination group (db/db, n=18).
Gavage doses: nomilin at a dose of 0.2 g/kg was gavaged per day for the nomilin group, deacetylnomilin at a dose of 0.2 g/kg was gavaged per day for the deacetylnomilin group, nomilin acid at a dose of 0.2 g/kg was gavaged per day for the nomilin acid group, deacetylnomilin […] at a dose of 0.2 g/kg was gavaged per day for the deactylnomilin glucopyranoside group, metformin at a dose of 0.2 g/kg was gavaged per day for the metformin group, nomilin at a dose of 0.1 g/kg and metformin at a dose of 0.1 g/kg were simultaneously gavaged per day for the nomilin/metformin combination group, nomilin acid at a dose of 0.1 g/kg and metformin at a dose of 0.1 g/kg were simultaneously gavaged per day for the nomilin acid/metformin combination group, deacetylnomilin at a dose of 0.1 g/kg and metformin at a dose of 0.1 g/kg were simultaneously gavaged per day for the deacetylnomilin/metformin combination group, deactylnomilin 17-β-D-glucopyranoside at a dose of 0.1 g/kg and metformin at a dose of 0.1 g/kg were simultaneously gavaged per day for the deactylnomilin 17-β-D-glucopyranoside/metformin combination group, the gavage volume was 10 mL/kg, and the normal group and the model group were administrated with 10 mL/kg of distilled water. Two weeks later, the blood glucose values were measured by tail trimming method (Johnson's blood glucose meter) 1 h after the last administration, and serum insulin levels were measured with blood collected from orbital cavity by enzyme-linked immunosorbent assay (Elisa), and the average of each group was obtained. SPSS 16.0 software was used for statistical analysis. The data were expressed as mean and standard deviation. The data before and after were analyzed by t-test, and P<0.05 was considered statistically significant.

A further experiment deals with ICR mice. The experiment can be described thus: Body weight, triglycerides and total cholesterol in obesity mouse model (Example 6). Type of experiment: in vivo. The conditions noted are these: high-fat feed ICR mice, single administration 0.1 g/kg per day by gavage, two weeks. An excerpt:
Effects of a Limonoid Compound, Metformin or a Combination Thereof on Body Weight, Triglycerides, and Total Cholesterol in an Obesity Mouse Model
In this example, ICR mice were used to complete the experiment for evaluation of lipid lowering and weight loss in animals (body weight, serum cholesterol, and serum triglycerides).
In this example, the limonoid compound was nomilin, and a metformin single administration group, nomilin single administration group, and metformin/nomilin combination administration groups (dose A and B groups) were set, respectively.
Conditions of experimental feeding: ICR mice, purchased from the Animal Center of Zhejiang Academy of Medical Sciences, half male and half female, body weight (20±2 g), fed with basic feed provided by the Animal Center of Zhejiang Medical Academy. It should be noted that the conditions for raising the mice were as follows: the temperature was 23±1° C., the humidity was 55±10%, the lights were turned on between 7 am and 7 pm (the lights were turned off at other time), and the mice were allowed to access to water and feed freely. The daily feeding and management of the animals were under the responsibility of the animal security department, which provided the animals with sufficient padding and fresh drinking water daily.
The ICR mice were randomly divided into the normal group and the high-fat feed group, according to body weight. The normal group was fed with ordinary feed from the beginning to the end of the experiment.
Gavage dose: nomilin at a dose of 0.1 g/kg was gavaged per day for the nomilin group, metformin at a dose of 0.1 g/kg was gavaged per day for the metformin group, nomilin at a dose of 0.05 g/kg and metformin at a dose of 0.05 g/kg were simultaneously gavaged per day for the combination dose group A, nomilin at a dose of 0.1 g/kg and metformin at a dose of 0.1 g/kg were simultaneously gavaged per day for the combination dose group B, the gavage volume was 10 mL/kg, and the normal group and the model group were administrated with 10 mL/kg of distilled water. Two weeks later, the mice were weighed, blood sampled from orbital cavity, measured to determine serum total cholesterol and triglyceride levels, and the average values of each group were obtained. SPSS 16.0 software was used for statistical analysis. The data were expressed as mean and standard deviation. The data before and after were analyzed by t-test, and P<0.05 was considered statistically significant.

For `CN(C)C(=N)NC(=N)N` [Metformin, N,N-dimethylimidodicarbonimidic diamide, reference compound], in the experiment with db/db mice (serum, Elisa), the Insulin worked out at 8.19 ± 2.10 pg/mL. The Blood glucose value with db/db mice (1 h after last administration) is reported as 12.2 ± 3.6 mmol/L. Also, the “Body weight gaining rate” value in the experiment on ICR mice is 11.56%. Further, in the experiment with ICR mice (serum), the Total cholesterol turned out to be 3.35 ± 0.07 mmol/L and the Triglycerides is listed as 1.17 ± 0.30 mmol/L.
